From the NIST ThermoML archive (doi:10.1021/acs.jced.8b00488)
Numbers after ± are expanded uncertainties.

Settings: Liquid, Ebulliometric method (Recirculating still)

CC(C)=O [acetone]
vapor or sublimation pressure (329.33 K): 101.3 ± 0.8 kPa

C[Si](C)(C)O[Si](C)(C)C [hexamethyldisiloxane]
vapor or sublimation pressure (374.12 K): 101.3 ± 0.8 kPa
